Here are results for 20 compounds from patent US12410207B2, “Galactoside inhibitor of galectins” (GALECTO BIOTECH AB, priority 2019, dated 2025).

In one data set the target is Galectin-1 (Homo sapiens, UniProt P09382). As to the kind of experiment: Fluorescence anisotropy assay, inhibition of galectin / fluorescein tagged saccharide probe interaction. The following applies: compound as inhibitor of probe binding. The protocol: (§1) The affinity of Example 1-45 for galectins were determined by a fluorescence anisotropy assay where the compound was used as an inhibitor of the interaction between galectin and a fluorescein tagged saccharide probe as described Sörme, P., Kahl-Knutsson, B., Huflejt, M., Nilsson, U. J., and Leffler H. (2004) Fluorescence polarization as an analytical tool to evaluate galectin-ligand interactions. Anal. Biochem. 334: 36-47, (Sorme et al., 2004) and Monovalent interactions of Galectin-1 By Salomonsson, Emma; Larumbe, Amaia; Tejler, Johan; Tullberg, Erik; Rydberg, Hanna; Sundin, Anders; Khabut, Areej; Frejd, Torbjorn; Lobsanov, Yuri D.; Rini, James M.; et al, From Biochemistry (2010), 49(44), 9518-9532, (Salomonsson et al., 2010).
Chain of Galectin-1 (P09382 whole entry, species assumed): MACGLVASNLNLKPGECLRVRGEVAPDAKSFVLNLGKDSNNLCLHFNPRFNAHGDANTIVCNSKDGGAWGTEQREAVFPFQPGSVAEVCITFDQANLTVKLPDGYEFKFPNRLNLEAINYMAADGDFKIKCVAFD
In general terms: Polarisation of emitted light reports the rotation of a fluorescent probe.

The next data set addresses Galectin-3 (Homo sapiens, UniProt P17931). The data set is described as above. The following applies: compound as inhibitor of probe binding. The procedure:
as §1

In the next data set the test system is MDCK-MDR1. Briefly: MDCK-MDR1 in vitro cell model of passage over Blood Brain Barrier. Conditions: MDCK-MDR1, result in words. The format is in vitro ADME.
A further data set deals with MDR1. The description is as above. The format is in vitro ADME. The following applies: dog.
The next data set has as its target galectins. The following applies: cited from earlier work.
Data set [1] can be described thus: In vivo mouse pharmacokinetic experiment (plasma and brain). The protocol:
FIG. 1 compares the mean plasma levels after IV and PO administration
FIG. 2 compares the mean brain tissue concertation after IV and PO administration
The ratio between exposure of example 35 in brain compared to plasma is determined to AUCbrain/AUCplasma=0.19 after oral administration. (AUC=area under the curve)

The mark [2] stands for this setting: MDCK-MDR1, first column, headed A > B.
Setting [3] is: MDCK-MDR1, second column, also headed A > B.

As usually defined, the Kd is a measure of binding affinity in units of concentration. The term Papp denotes a coefficient for how fast a substance crosses the barrier. Low values mean poor permeation, high ones ready permeation.

Chain of Galectin-3 (P17931 whole entry, species assumed): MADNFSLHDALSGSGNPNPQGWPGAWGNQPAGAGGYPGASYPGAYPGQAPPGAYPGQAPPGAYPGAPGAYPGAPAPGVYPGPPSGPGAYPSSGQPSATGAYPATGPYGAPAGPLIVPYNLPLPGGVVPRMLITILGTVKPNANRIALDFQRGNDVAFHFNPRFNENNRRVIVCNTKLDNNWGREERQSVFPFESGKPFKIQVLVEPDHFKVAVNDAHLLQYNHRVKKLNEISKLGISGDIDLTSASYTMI

For `OCC1O[C@H](Sc2cncc(Cl)c2)C(O)C(n2cc(-c3cc(F)c(Cl)c(F)c3)cn2)[C@H]1O` (stereo partly drawn) [Example 2, 5-Chloropyridin-3-yl 3-[4-(4-chloro-3,5-difluorophenyl)-1H-1,2-pyrazol-1-yl]-3-deoxy-1-thio-α-D-galactopyranoside], the Kd at Galectin-1 stood at 27.6 µM; on Galectin-3 it was 20 nM. Moreover, the “efflux and uptake in in vitro cell model of BBB passage” value (from here on “efflux and uptake”) in the data set on MDCK-MDR1 was “low or no efflux and high uptake”. The figures for the Papp in the data set on MDR1 (setting [2]) and in the data set on MDR1 (setting [3]) were 25 ×10⁻⁶ cm/s and 50 ×10⁻⁶ cm/s, respectively.
For the compound `COC1C(n2cc(-c3cc(F)c(F)c(F)c3)cn2)[C@@H](O)C(CO)O[C@@H]1Sc1cncc(Br)c1` (stereo partly drawn) [Example 33, 5-Bromopyridin-3-yl 3-deoxy-3-[4-(3,4,5-trifluorophenyl)-1H-1,2-pyrazol-1-yl]-2-O-methyl-1-thio-α-D-galactopyranoside], the Kd worked out at 3.6 µM on Galectin-1 and 22 nM on Galectin-3. Also, the “efflux and uptake” value in the data set on MDCK-MDR1 is “low or no efflux and high uptake”. Further, the results for the apparent permeability coefficient (Papp) in the data set with MDR1 (setting [2]) and in the data set on MDR1 (setting [3]) were 34 ×10⁻⁶ cm/s and 23 ×10⁻⁶ cm/s, respectively.
As to `OCC1O[C@H](Sc2cncc(Br)c2)C(O)C(n2cc(-c3cc(F)c(Cl)c(F)c3)cn2)[C@H]1O` (stereo partly drawn) [Example 6, 5-Bromopyridin-3-yl 3-[4-(4-chloro-3,5-difluorophenyl)-1H-1,2-pyrazol-1-yl]-3-deoxy-1-thio-α-D-galactopyranoside], the results for the Kd on Galectin-1 and on Galectin-3 were 23 µM and 16 nM, respectively. Further, the “efflux and uptake” value in the data set with MDCK-MDR1 was “low or no efflux and high uptake”. For the same compound, the figures for the Papp in the data set with MDR1 (setting [2]) and in the data set with MDR1 (setting [3]) were 18 ×10⁻⁶ cm/s and 52 ×10⁻⁶ cm/s, respectively.
As to `OCC1O[C@H](Sc2cncc(Cl)c2)C(O)C(n2cc(-c3cc(F)c(F)c(F)c3)cn2)[C@H]1O` (stereo partly drawn) [Example 3, 5-Chloropyridin-3-yl 3-deoxy-3-[4-(3,4,5-trifluorophenyl)-1H-1,2-pyrazol-1-yl]-1-thio-α-D-galactopyranoside], the figures for the dissociation constant (Kd) at Galectin-1 and on Galectin-3 were 12.8 µM and 28 nM, respectively. Also, the “efflux and uptake” value in the data set on MDCK-MDR1 was “low or no efflux and high uptake”. Also, the Papp worked out at 14 ×10⁻⁶ cm/s in the data set on MDR1 (setting [2]) and 39 ×10⁻⁶ cm/s with MDR1 (setting [3]).
With `OC[C@H]1O[C@@H](O[C@H]2[C@H](O)[C@@H](O)C(O)O[C@@H]2CO)[C@H](O)[C@@H](O)[C@H]1O` (some centres unmarked) [lactose], the Kd on galectins (reviewed by Leffler 2001, Leffler et al. 2004, read-out: Kd, all galectins) was 500 to 1000 µM.
Turning to `N#Cc1ncc(Br)cc1S[C@H]1OC(CO)[C@H](O)C(n2cc(-c3cc(F)c(F)c(F)c3)cn2)C1O` (stereo partly drawn) [Example 15, 5-Bromo-2-cyanopyridin-3-yl 3-deoxy-3-[4-(3,4,5-trifluorophenyl)-1H-1,2-pyrazol-1-yl]-1-thio-α-D-galactopyranoside], the Kd came out at 4.8 µM at Galectin-1 and 11 nM on Galectin-3. The “efflux and uptake” value in the data set with MDCK-MDR1 was “low or no efflux and high uptake”. Besides, the Papp amounted to 12 ×10⁻⁶ cm/s in the data set with MDR1 (setting [2]) and 53 ×10⁻⁶ cm/s with MDR1 (setting [3]).
As to `C#Cc1cncc(S[C@H]2OC(CO)[C@H](O)C(n3cc(-c4cc(F)c(F)c(F)c4)cn3)C2OC)c1` (stereo partly drawn) [Example 34, 5-Ethynylpyridin-3-yl 3-deoxy-3-[4-(3,4,5-trifluorophenyl)-1H-1,2-pyrazol-1-yl]-2-O-methyl-1-thio-α-D-galactopyranoside], the figures for the Kd on Galectin-1 and at Galectin-3 were 16.5 µM and 23 nM, respectively. In addition, in the data set with MDCK-MDR1, the “efflux and uptake” value is “low or no efflux and high uptake”. Further, the apparent permeability coefficient (Papp) in the data set with MDR1 (setting [2]) stood at 35 ×10⁻⁶ cm/s; with MDR1 (setting [3]), 37 ×10⁻⁶ cm/s.
With `COC1C(n2cc(-c3cc(F)c(F)c(F)c3)cn2)[C@@H](O)C(CO)O[C@@H]1Sc1cc(Cl)cnc1C#N` (stereo partly drawn) [Example 35, 5-Chloro-2-cyanopyridin-3-yl 3-deoxy-3-[4-(3,4,5-trifluorophenyl)-1H-1,2-pyrazol-1-yl]-2-O-methyl-1-thio-α-D-galactopyranoside], the figures for the equilibrium dissociation constant (Kd) on Galectin-1 and at Galectin-3 were 3.1 µM and 14 nM, respectively. In the data set with MDCK-MDR1, the “efflux and uptake” value was “low or no efflux and high uptake”. Besides, the Papp in the data set with MDR1 (setting [2]) was 23 ×10⁻⁶ cm/s; in the data set with MDR1 (setting [3]) it was 35 ×10⁻⁶ cm/s. The systemic bioavailability entry in data set [1] (IV 1 mg/kg and PO 10 mg/kg, FIG. 1) is reported as “excellent systemic bioavailability”. Moreover, the exposure in brain entry in data set [1] (IV 1 mg/kg and PO 10 mg/kg, FIG. 2) is “good exposure in brain”. For the same compound, in data set [1] (brain (relative to plasma), after oral administration (PO 10 mg/kg), read-out: AUCbrain/AUCplasma), the Kp turned out to be 0.19.
Regarding `OCC1O[C@H](Sc2cccc(Cl)c2)C(O)C(n2cc(-c3cccc(F)c3)cn2)[C@H]1O` (stereo partly drawn) [Example 1, 3-Chlorophenyl 3-deoxy-3-[4-(3-fluorophenyl)-1H-1,2-pyrazol-1-yl]-1-thio-α-D-galactopyranoside], the Kd at Galectin-1 came to 19.9 µM; on Galectin-3, 270 nM.
Turning to `OCC1O[C@H](Sc2cncc(Br)c2)C(O)C(n2cc(-c3nc(Cl)cs3)cn2)[C@H]1O` (stereo partly drawn) [Example 28, 5-Bromopyridin-3-yl 3-[4-(4-chlorothiazol-2-yl)-1H-1,2-pyrazol-1-yl]-3-deoxy-1-thio-α-D-galactopyranoside], the Kd at Galectin-1 was 0.52 µM; on Galectin-3, 1200 nM.
The corresponding values for `N#Cc1ccc(Cl)cc1S[C@H]1OC(CO)[C@H](O)C(n2cc(-c3cc(F)c(F)c(F)c3)cn2)C1O` (stereo partly drawn) [Example 11, 5-Chloro-2-cyanophenyl 3-deoxy-3-[4-(3,4,5-trifluorophenyl)-1H-1,2-pyrazol-1-yl]-1-thio-α-D-galactopyranoside] are 9.8 µM and 24 nM.
Take `N#Cc1ncc(Cl)cc1S[C@H]1OC(CO)[C@H](O)C(n2cc(-c3cc(F)c(F)c(F)c3)cn2)C1O` (stereo partly drawn) [Example 12, 5-Chloro-2-cyanopyridin-3-yl 3-deoxy-3-[4-(3,4,5-trifluorophenyl)-1H-1,2-pyrazol-1-yl]-1-thio-α-D-galactopyranoside]: the values for the Kd at Galectin-1 and on Galectin-3 were 8.2 µM and 21 nM, respectively. In addition, the “efflux and uptake” value in the data set on MDCK-MDR1 was “low or no efflux and high uptake”. Besides, the apparent permeability coefficient (Papp) with MDR1 (setting [2]) worked out at 12 ×10⁻⁶ cm/s; in the data set on MDR1 (setting [3]), 51 ×10⁻⁶ cm/s.
For the compound `N#Cc1ncc(Cl)cc1S[C@H]1OC(CO)[C@H](O)C(n2cc(-c3cc(F)c(Cl)c(F)c3)cn2)C1O` (stereo partly drawn) [Example 13, 5-Chloro-2-cyanopyridin-3-yl 3-[4-(4-chloro-3,5-difluorophenyl)-1H-1,2-pyrazol-1-yl]-3-deoxy-1-thio-α-D-galactopyranoside], the Kd on Galectin-1 was 34 µM; on Galectin-3, 14 nM.
As for `OCC1O[C@H](Sc2cncc(Cl)c2)C(O)C(n2cc(-c3ccc(Cl)c(F)c3)cn2)[C@H]1O` (stereo partly drawn) [Example 17, 5-Chloropyridin-3-yl 3-[4-(4-chloro-3-fluorophenyl)-1H-1,2-pyrazol-1-yl]-3-deoxy-1-thio-α-D-galactopyranoside], the results for the Kd on Galectin-1 and at Galectin-3 were 19.7 µM and 29 nM, respectively. Further, the “efflux and uptake” value in the data set on MDCK-MDR1 was “low or no efflux and high uptake”. The Papp in the data set with MDR1 (setting [2]) is 28 ×10⁻⁶ cm/s; with MDR1 (setting [3]), 49 ×10⁻⁶ cm/s.
For `O=C[C@H](O)[C@@H](O)[C@@H](O)[C@H](O)CO` [D-galactose], the “affinity, times lower than lactose” value in the data set with galectins (relative to lactose) is 50-100 times.
As to `COC1C(n2cc(-c3cc(F)c(F)c(F)c3)cn2)[C@@H](O)C(CO)O[C@@H]1Sc1cc(Cl)ccc1C#N` (stereo partly drawn) [Example 45, 5-Chloro-2-cyanophenyl 3-deoxy-3-[4-(3,4,5-trifluorophenyl)-1H-1,2-pyrazol-1-yl]-2-O-methyl-1-thio-α-D-galactopyranoside], the Kd at Galectin-1 was determined as 8.5 µM; on Galectin-3 it was 30 nM.
Taken in the same sequence, the figures for `OCC1O[C@H](Sc2cncc(Cl)c2)C(O)C(n2cc(-c3nccs3)cn2)[C@H]1O` (stereo partly drawn) [Example 26, 5-Chloropyridin-3-yl 3-deoxy-3-[4-(thiazol-2-yl)-1H-1,2-pyrazol-1-yl]-1-thio-α-D-galactopyranoside] were 2.3 µM and 9900 nM.
In the case of `OC[C@H]1O[C@H](Sc2ccc(Cl)c(Cl)c2)[C@H](O)[C@@H](c2nnc(-c3cc(F)c(F)c(F)c3)o2)[C@H]1O` [Example 41, 3,4-Dichlorophenyl 3-deoxy-3-[5-(3,4,5-trifluorophenyl)-1,3,4-oxadiazol-2-yl]-1-thio-α-D-galactopyranoside], the dissociation constant (Kd) at Galectin-1 was above 100 µM; on Galectin-3 it was 1200 nM.
For the compound `COC1C(n2cc(-c3cc(F)c(F)c(F)c3)cn2)[C@@H](O)C(CO)O[C@@H]1Sc1cncc(Cl)c1` (stereo partly drawn) [Example 32, 5-Chloropyridin-3-yl 3-deoxy-3-[4-(3,4,5-trifluorophenyl)-1H-1,2-pyrazol-1-yl]-2-O-methyl-1-thio-α-D-galactopyranoside], the figures for the Kd at Galectin-1 and on Galectin-3 were 6.7 µM and 17 nM, respectively. Moreover, the “efflux and uptake” value in the data set on MDCK-MDR1 is “low or no efflux and high uptake”. Further, the apparent permeability coefficient (Papp) amounted to 30 ×10⁻⁶ cm/s in the data set on MDR1 (setting [2]) and 33 ×10⁻⁶ cm/s in the data set on MDR1 (setting [3]).
`O=C(c1ccc(Cl)cc1S[C@H]1OC(CO)[C@H](O)C(n2cc(-c3cc(F)c(Cl)c(F)c3)cn2)C1O)N1CCC1` (stereo partly drawn) [Example 9, 2-(N-azetidinyl-carbonyl)-5-chlorophenyl 3-[4-(4-chloro-3,5-difluorophenyl)-1H-1,2-pyrazol-1-yl]-3-deoxy-1-thio-α-D-galactopyranoside]: the values for the Kd on Galectin-1 and at Galectin-3 were 19.2 µM and 12 nM, respectively.
